Numbers after ± are expanded uncertainties.
Columns and labels:
[1] = refractive index (Na D-line) (dimensionless); conditions: 298.15 K; 101 kPa; Liquid; Standard Abbe refractometry
[2] = Liquid; for vapor or sublimation pressure: Ebulliometric method (Recirculating still)

Row | SMILES | refractive index [1] | vapor or sublimation pressure ([2]; 373.15 K) | mass density ([2]; 298.15 K, 101 kPa, Vibrating tube method) | vapor or sublimation pressure ([2]; 351.45 K)
1 | O [water] | 1.33237 ± 0.00032 | 101.3 ± 0.5 kPa |  | 
2 | OCCCO [propan-1,3-diol] | 1.43851 ± 0.00037 |  | 1049.68 ± 0.27 kg/m3 | 
3 | CCO [ethanol] | 1.35924 ± 0.00032 |  |  | 101.3 ± 0.5 kPa

Reference: the NIST ThermoML archive (doi:10.1016/j.jct.2013.08.020)
